Laboratory results from ChEMBL document CHEMBL1145110, “Oxidosqualene cyclase inhibitors as antimicrobial agents” (J Med Chem, 2003).

Assays:
[1] = test system: Leishmania mexicana; experiment: Tested for inhibition of growth Leishmania mexicana in a pathogen cell culture assay; format: functional; conditions: read-out: ED50 (the source's name)
[2] = test system: NIH3T3; experiment: Tested for inhibition of growth of NIH3T3 cells a in a pathogen cell culture assay; format: functional; conditions: Mus musculus, read-out: ED50 (the source's name)
[3] = test system: Pneumocystis carinii; experiment: Tested for inhibition of growth Pneumocystis carinii in a pathogen cell culture assay, at a concentration of 10 uM; format: functional
[4] = test system: Trypanosoma cruzi; experiment: Tested for inhibition of growth Trypanosoma cruzi in a pathogen cell culture assay; format: functional; conditions: read-out: ED50 (the source's name)
[5] = test system: Trypanosoma brucei; experiment: Tested for inhibition of growth Trypanosoma brucei in a pathogen cell culture assay; format: functional; conditions: read-out: ED50 (the source's name)
[6] = test system: Toxoplasma gondii; experiment: Tested for inhibition of growth Toxoplasma gondii in a pathogen cell culture assay, at a concentration of 10 uM; format: functional
[7] = target: T1, Lanosterol synthase (Rattus norvegicus, UniProt P48450); experiment: Tested for Oxidosqualene-lanosterol cyclase inhibition in rat
T1 sequence (P48450 whole entry): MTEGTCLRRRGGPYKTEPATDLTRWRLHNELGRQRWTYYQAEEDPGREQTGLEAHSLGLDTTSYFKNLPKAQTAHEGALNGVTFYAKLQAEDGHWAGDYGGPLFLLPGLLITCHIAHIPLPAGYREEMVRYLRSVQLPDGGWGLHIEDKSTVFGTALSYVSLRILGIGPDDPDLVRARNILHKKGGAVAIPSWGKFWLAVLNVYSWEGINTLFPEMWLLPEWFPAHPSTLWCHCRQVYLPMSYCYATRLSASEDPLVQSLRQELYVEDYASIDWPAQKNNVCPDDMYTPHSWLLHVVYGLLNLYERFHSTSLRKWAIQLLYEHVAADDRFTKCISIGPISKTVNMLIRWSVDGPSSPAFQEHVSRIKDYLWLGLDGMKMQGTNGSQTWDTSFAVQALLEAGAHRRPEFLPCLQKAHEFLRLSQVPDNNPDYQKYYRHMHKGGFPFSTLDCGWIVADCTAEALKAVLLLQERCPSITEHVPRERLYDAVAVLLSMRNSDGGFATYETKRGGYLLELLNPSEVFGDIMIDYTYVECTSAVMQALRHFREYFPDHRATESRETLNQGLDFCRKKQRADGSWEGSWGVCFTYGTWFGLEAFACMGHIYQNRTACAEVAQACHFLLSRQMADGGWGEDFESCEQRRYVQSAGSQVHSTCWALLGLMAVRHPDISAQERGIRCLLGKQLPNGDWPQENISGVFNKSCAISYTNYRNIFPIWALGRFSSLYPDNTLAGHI

[8] = test system: Leishmania mexicana; experiment: Tested for inhibition of growth of Leishmania mexicana in a pathogen cell culture assay; format: functional; conditions: read-out: ED50 (the source's name)
[9] = test system: Pneumocystis carinii; experiment: Tested for inhibition of growth of Pneumocystis carinii in a pathogen cell culture assay, at a concentration of 10 uM; format: functional
[10] = test system: Trypanosoma cruzi; experiment: Tested for inhibition of growth of Trypanosoma cruzi in a pathogen cell culture assay; format: functional; conditions: read-out: ED50 (the source's name)
[11] = test system: Trypanosoma brucei; experiment: Tested for inhibition of growth of Trypanosoma brucei in a pathogen cell culture assay; format: functional; conditions: read-out: ED50 (the source's name)
[12] = test system: Toxoplasma gondii; experiment: Tested for inhibition of growth of Toxoplasma gondii in a pathogen cell culture assay, at a concentration of 10 uM; format: functional

| SMILES | EC50 [4] | EC50 [5] | IC50 [7] | EC50 [1] | EC50 [2] | inhibition at 10 µM [3] | inhibition at 10 µM [6] | EC50 [8] | inhibition at 10 µM [9] | EC50 [10] | EC50 [11] | inhibition at 10 µM [12] |
| --- | --- | --- | --- | --- | --- | --- | --- | --- | --- | --- | --- | --- |
| CCN(CC)CCOc1ccc(-c2ccccc2)cc1 | > 10 µM | > 10 µM |  | 10 µM | > 10 µM | 95% | < 1% |  |  |  |  |  |
| C=CCN(C)CCCCCCOc1ccc(C(=O)c2ccc(Cl)cc2)c(F)c1 |  |  | 0.049 µM |  |  |  |  |  |  |  |  |  |
| O=C(c1ccc(Cl)cc1)c1ccc(OC2CN3CCC2CC3)cc1 (centres undefined) |  |  | 0.16 µM |  | > 10 µM |  |  | 0.4 µM | 81% | 1 µM | > 10 µM | 48% |

Further compounds by falling EC50 [4], results first:

| EC50 [4] | EC50 [5] | IC50 [7] | SMILES | EC50 [1] | EC50 [2] | inhibition at 10 µM [3] | inhibition at 10 µM [6] | EC50 [8] | inhibition at 10 µM [9] | EC50 [10] | EC50 [11] | inhibition at 10 µM [12] |
| --- | --- | --- | --- | --- | --- | --- | --- | --- | --- | --- | --- | --- |
| 1 µM | > 10 µM | 2.5 µM | CN(C)CCCOc1ccc(-c2ccccc2)cc1 | 0.4 µM | > 10 µM | 95% | 17% |  |  |  |  |  |
| 1 µM | > 10 µM |  | OCCN1CCN(CCOc2ccc(-c3ccccc3)cc2)CC1 | 0.4 µM | > 10 µM | 95% | 28% |  |  |  |  |  |
| 1 µM | > 10 µM |  | O=C(c1ccc(Cl)cc1)c1ccc(OCCN2CCN(CCO)CC2)cc1 | 0.4 µM | > 10 µM | 95% | 28% |  |  |  |  |  |
| 1 µM | > 10 µM |  | CN(C)CCCOc1ccc(C(=O)c2ccc(Cl)cc2)cc1 | 0.4 µM | > 10 µM | 95% | 17% |  |  |  |  |  |
